Experimental findings from patent publication US20210063414A1, “METHODS FOR PREVENTING AND/OR TREATING BONE LOSS CONDITIONS BY MODULATING IRISIN” (Dana-Farber Cancer Institute, Inc., priority 2018, published 2021) are described below.

The subject of experiment [1] is primary inguinal fat cells. The experiment can be described thus: Ucp1 mRNA in primary inguinal fat cells. The experiment is classed as cell-based, mice. Particulars: 10 μM peptide. As to the method:
(§1) FIG. 18A-FIG. 18B show mRNA and protein levels of indicated genes. 1 mg/kg irisin was injected to 8-week old mice every other day for 6 days. mRNA levels of indicated genes in inguinal fat were analyzed by qRT-PCR. Cyclophilin was used for housekeeping gene (FIG. 18A). Inguinal fats were also lysed to detect the indicated protein level using immunoblot analysis (FIG. 18B). FIGS. 18C and 18D show mRNA and protein levels of indicated genes. Mice were treated and analyzed as (A-B) with addition of coinjection of […] control RGD peptide or cyclo RGDyK (cRGDyK). mRNA levels of indicated genes in inguinal fat were analyzed by qRT-PCR. Cyclophilin was used for house-keeping gene (FIG. 18C). Inguinal fats were also lysed to detect the indicated protein level using immunoblot analysis (FIG. 18D). […] Ucp1 mRNA level was analyzed by qRT-PCR. […]
Inguinal fat tissue from 6 weeks old mice was dissected and washed with PBS, minced and digested for 1 hour at 37° C. in PBS containing 10 mM CaCl2, 2.4 U/ml dispase II (Roche) and 10 mg/ml collagenase D (Roche). […] After that, cells were maintained in 1 μM rosiglitazone in the presence of 0, 0.5, 5 or 50 ng/ml recombinant […] his-tag irisin protein for 4 days with medium change every other day. mRNA levels were analyzed as described in gene expression analysis. […]

Experiment [2] deals with inguinal fat. The experiment can be described thus: Irisin injection in mice: Ucp1/Dio2 mRNA and Ucp1 protein in inguinal fat. Type of experiment: in vivo. As to conditions: mice, co-injection with irisin. As for the experimental part: as §1
RNA was extracted from cultured cells or frozen tissues using TRIzol® (Thermo Fischer Scientific) and purified with RNeasy® mini kit (QIAGEN 74106). […] To perform qRT-PCR analysis, normalized RNA was reverse transcribed using a high-capacity cDNA reverse-transcription kit (Applied Biosystems™). cDNA was analyzed by qRT-PCR with indicated primers. Relative mRNA levels were calculated using the comparative CT method and normalized to cyclophilin mRNA. […]

In the case of `N=C(N)NCCC[C@@H]1NC(=O)[C@H](CCCCN)NC(=O)[C@@H](Cc2ccc(O)cc2)NC(=O)[C@H](CC(=O)O)NC(=O)CNC1=O` [cyclo RGDyK], the “effect on irisin-induced gene expression (Ucp1)” value in experiment [1] is recorded as “prevented irisin-induced gene expression”. Also, in experiment [2], the “effect on irisin induction of the protein level of Ucp1” value was “blocked”; the “effect on irisin-induced gene expression of Ucp1 and Dio2” value was “blocked”.
